We go through 6 cell lines from the supplement of paper PMC10307832.

What all share (assay): relative viability (nuclei count vs DMSO), 5 days (fraction); higher = more cells survive
Compound in the assay “Lapatinib + OSI-027”: CS(=O)(=O)CCNCc1ccc(-c2ccc3ncnc(Nc4ccc(OCc5cccc(F)c5)c(Cl)c4)c3c2)o1 [Lapatinib] + COc1cccc2cc(-c3nc([C@H]4CC[C@H](C(=O)O)CC4)n4ncnc(N)c34)[nH]c12 [OSI-027] (partner 0.5 µM)
Put shortly: (§1)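 Lung cancer cell lines, seeded in 1536-well plates, were treated the following day by pin tool with a single drug or with five library-drug doses (not always all listed) in √10 steps on top of a fixed anchor-drug dose. Cells were fixed and nuclei stained in one step after 5 days, and nuclei were counted. Relative viability is the nuclei count for treated wells divided by that for vehicle wells, reported as medians of duplicate plates.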

Compound in the assay “Lapatinib + Olaparib”: CS(=O)(=O)CCNCc1ccc(-c2ccc3ncnc(Nc4ccc(OCc5cccc(F)c5)c(Cl)c4)c3c2)o1 [Lapatinib] + O=C(c1cc(Cc2n[nH]c(=O)c3ccccc23)ccc1F)N1CCN(C(=O)C2CC2)CC1 [Olaparib] (partner 8 µM)
Put shortly:
as §1

Compound in the assay “Lapatinib + Alpelisib”: CS(=O)(=O)CCNCc1ccc(-c2ccc3ncnc(Nc4ccc(OCc5cccc(F)c5)c(Cl)c4)c3c2)o1 [Lapatinib] + Cc1nc(NC(=O)N2CCC[C@H]2C(N)=O)sc1-c1ccnc(C(C)(C)C(F)(F)F)c1 [Alpelisib] (partner 2 µM)
The method, boiled down:
as §1

Compound in the assay “Lapatinib + Trametinib”: CS(=O)(=O)CCNCc1ccc(-c2ccc3ncnc(Nc4ccc(OCc5cccc(F)c5)c(Cl)c4)c3c2)o1 [Lapatinib] + CC(=O)Nc1cccc(-n2c(=O)n(C3CC3)c(=O)c3c(Nc4ccc(I)cc4F)n(C)c(=O)c(C)c32)c1 [Trametinib] (partner 0.02 µM)
Put shortly:
as §1

Regarding NCI-H1437, the relative viability with Lapatinib + OSI-027 (first compound 0.02 µM) stood at 0.814; with Lapatinib + OSI-027 (first compound 0.06325 µM), 0.684; with Lapatinib + OSI-027 (first compound 0.2 µM), 0.841; in the assay with Lapatinib + OSI-027 (first compound 0.6325 µM) it was 0.751; with Lapatinib + OSI-027 (first compound 2 µM), 0.645; in the assay with Lapatinib + Olaparib (first compound 0.02 µM) it was 0.62. Also, the relative viability with Lapatinib + Olaparib (first compound 0.06325 µM) worked out at 0.626; with Lapatinib + Olaparib (first compound 0.2 µM) it was 0.62; with Lapatinib + Olaparib (first compound 0.6325 µM), 0.609; with Lapatinib + Olaparib (first compound 2 µM) it was 0.507; with Lapatinib + Alpelisib (first compound 0.02 µM), 1; with Lapatinib + Alpelisib (first compound 0.06325 µM), 0.869. For the same cell line, the relative viability with Lapatinib + Alpelisib (first compound 0.2 µM) came to 1.02; in the assay with Lapatinib + Alpelisib (first compound 0.6325 µM), 0.864; with Lapatinib + Alpelisib (first compound 2 µM), 0.866; with Lapatinib + Trametinib (first compound 0.02 µM), 0.475; in the assay with Lapatinib + Trametinib (first compound 0.06325 µM), 0.492; with Lapatinib + Trametinib (first compound 0.2 µM) it was 0.498. Moreover, the values for the relative viability with Lapatinib + Trametinib (first compound 0.6325 µM) and with Lapatinib + Trametinib (first compound 2 µM) were 0.458 and 0.303, respectively.
As to BEN, the relative viability in the assay with Lapatinib + OSI-027 (first compound 0.06325 µM) turned out to be 0.279; in the assay with Lapatinib + OSI-027 (first compound 0.2 µM) it was 0.298; with Lapatinib + OSI-027 (first compound 0.6325 µM) it was 0.288; in the assay with Lapatinib + OSI-027 (first compound 2 µM) it was 0.25; in the assay with Lapatinib + Olaparib (first compound 0.02 µM) it was 1.13; with Lapatinib + Olaparib (first compound 0.06325 µM) it was 1. Moreover, the relative viability was 1.07 with Lapatinib + Olaparib (first compound 0.2 µM); 1.01 with Lapatinib + Olaparib (first compound 0.6325 µM); 0.837 in the assay with Lapatinib + Olaparib (first compound 2 µM); 0.961 in the assay with Lapatinib + Alpelisib (first compound 0.02 µM); 0.904 with Lapatinib + Alpelisib (first compound 0.06325 µM); 1.19 with Lapatinib + Alpelisib (first compound 0.2 µM). The relative viability is 0.909 with Lapatinib + Alpelisib (first compound 0.6325 µM); 0.853 with Lapatinib + Alpelisib (first compound 2 µM); 1.05 in the assay with Lapatinib + Trametinib (first compound 0.02 µM); 0.898 with Lapatinib + Trametinib (first compound 0.06325 µM); 1.05 with Lapatinib + Trametinib (first compound 0.2 µM); 0.931 with Lapatinib + Trametinib (first compound 0.6325 µM). The relative viability with Lapatinib + Trametinib (first compound 2 µM) worked out at 0.999.
Regarding LOU-NH91, the relative viability with Lapatinib + OSI-027 (first compound 0.02 µM) was determined as 0.608; in the assay with Lapatinib + OSI-027 (first compound 0.06325 µM) it was 0.577; with Lapatinib + OSI-027 (first compound 0.2 µM), 0.51; in the assay with Lapatinib + OSI-027 (first compound 0.6325 µM), 0.589; with Lapatinib + OSI-027 (first compound 2 µM), 0.453; with Lapatinib + Olaparib (first compound 0.02 µM) it was 0.921. Moreover, the relative viability with Lapatinib + Olaparib (first compound 0.06325 µM) was 0.748; in the assay with Lapatinib + Olaparib (first compound 0.2 µM), 0.836; with Lapatinib + Olaparib (first compound 0.6325 µM), 0.696; with Lapatinib + Olaparib (first compound 2 µM), 0.617; with Lapatinib + Alpelisib (first compound 0.02 µM), 0.661; in the assay with Lapatinib + Alpelisib (first compound 0.06325 µM) it was 0.557. In addition, the relative viability worked out at 0.533 with Lapatinib + Alpelisib (first compound 0.2 µM); 0.508 with Lapatinib + Alpelisib (first compound 0.6325 µM); 0.472 with Lapatinib + Alpelisib (first compound 2 µM); 0.787 in the assay with Lapatinib + Trametinib (first compound 0.02 µM); 0.684 with Lapatinib + Trametinib (first compound 0.06325 µM); 0.726 in the assay with Lapatinib + Trametinib (first compound 0.2 µM). The relative viability came out at 0.709 with Lapatinib + Trametinib (first compound 0.6325 µM) and 0.665 with Lapatinib + Trametinib (first compound 2 µM).
On to PC-3 [JPC-3], for which the relative viability amounted to 0.73 with Lapatinib + OSI-027 (first compound 0.02 µM); 0.624 in the assay with Lapatinib + OSI-027 (first compound 0.06325 µM); 0.725 with Lapatinib + OSI-027 (first compound 0.2 µM); 0.756 in the assay with Lapatinib + OSI-027 (first compound 0.6325 µM); 0.565 with Lapatinib + OSI-027 (first compound 2 µM); 1.09 with Lapatinib + Olaparib (first compound 0.06325 µM). Moreover, the relative viability in the assay with Lapatinib + Olaparib (first compound 0.6325 µM) was determined as 1.16; in the assay with Lapatinib + Olaparib (first compound 2 µM), 0.883; with Lapatinib + Alpelisib (first compound 0.06325 µM) it was 1.04; with Lapatinib + Alpelisib (first compound 0.2 µM) it was 1.02; in the assay with Lapatinib + Alpelisib (first compound 0.6325 µM), 0.988; with Lapatinib + Alpelisib (first compound 2 µM), 0.585. Further, the relative viability with Lapatinib + Trametinib (first compound 0.06325 µM) turned out to be 0.675; with Lapatinib + Trametinib (first compound 0.6325 µM) it was 0.721; with Lapatinib + Trametinib (first compound 2 µM), 0.412.
Take NCI-H1355: the relative viability with Lapatinib + OSI-027 (first compound 0.06325 µM) stood at 0.216; in the assay with Lapatinib + OSI-027 (first compound 0.2 µM), 0.342; with Lapatinib + OSI-027 (first compound 0.6325 µM), 0.367; in the assay with Lapatinib + OSI-027 (first compound 2 µM) it was 0.268; with Lapatinib + Olaparib (first compound 0.02 µM), 0.719; in the assay with Lapatinib + Olaparib (first compound 0.06325 µM), 0.594. The relative viability was 0.699 in the assay with Lapatinib + Olaparib (first compound 0.2 µM); 0.688 with Lapatinib + Olaparib (first compound 0.6325 µM); 0.439 in the assay with Lapatinib + Olaparib (first compound 2 µM); 0.621 with Lapatinib + Alpelisib (first compound 0.06325 µM); 0.734 with Lapatinib + Alpelisib (first compound 0.2 µM); 0.762 with Lapatinib + Alpelisib (first compound 0.6325 µM). Further, the relative viability with Lapatinib + Alpelisib (first compound 2 µM) is 0.416; in the assay with Lapatinib + Trametinib (first compound 0.02 µM), 0.406; with Lapatinib + Trametinib (first compound 0.06325 µM), 0.349; in the assay with Lapatinib + Trametinib (first compound 0.2 µM), 0.37; in the assay with Lapatinib + Trametinib (first compound 0.6325 µM) it was 0.387; in the assay with Lapatinib + Trametinib (first compound 2 µM), 0.261.
With NCI-H520, the relative viability is 0.276 in the assay with Lapatinib + OSI-027 (first compound 0.02 µM); 0.181 in the assay with Lapatinib + OSI-027 (first compound 0.06325 µM); 0.321 with Lapatinib + OSI-027 (first compound 0.2 µM); 0.266 with Lapatinib + OSI-027 (first compound 0.6325 µM); 0.232 in the assay with Lapatinib + OSI-027 (first compound 2 µM); 0.349 with Lapatinib + Olaparib (first compound 0.02 µM). The relative viability is 0.278 with Lapatinib + Olaparib (first compound 0.06325 µM); 0.363 with Lapatinib + Olaparib (first compound 0.2 µM); 0.326 in the assay with Lapatinib + Olaparib (first compound 0.6325 µM); 0.366 with Lapatinib + Olaparib (first compound 2 µM); 0.961 with Lapatinib + Alpelisib (first compound 0.02 µM); 0.805 with Lapatinib + Alpelisib (first compound 0.06325 µM). The relative viability with Lapatinib + Alpelisib (first compound 0.2 µM) stood at 0.912; with Lapatinib + Alpelisib (first compound 0.6325 µM), 1.02; with Lapatinib + Alpelisib (first compound 2 µM), 0.807; in the assay with Lapatinib + Trametinib (first compound 0.02 µM) it was 0.692; in the assay with Lapatinib + Trametinib (first compound 0.06325 µM), 0.62; with Lapatinib + Trametinib (first compound 0.2 µM), 0.642. Moreover, the values for the relative viability in the assay with Lapatinib + Trametinib (first compound 0.6325 µM) and with Lapatinib + Trametinib (first compound 2 µM) were 0.845 and 0.557, respectively.
